# Measurements published in ChEMBL document CHEMBL1201862, “PubChem BioAssay data set” (2004).
# Calls of active or inactive are those of the source.
# Experiments:
# [1] = target: Peroxisome proliferator-activated receptor gamma/Nuclear receptor coactivator 3 (Homo sapiens, UniProt P37231); format: functional;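 note: agonist potency for raising coactivator recruitment to the receptor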
# [2] = target: Peroxisome proliferator-activated receptor gamma/Nuclear receptor coactivator 1 (Homo sapiens, UniProt P37231); format: functional;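 note: agonist potency as compounds enhance coactivator SRC-1 recruitment to PPARgamma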
# [3] = target: Peroxisome proliferator-activated receptor gamma/Nuclear receptor coactivator 2 (Homo sapiens, UniProt P37231); format: functional;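 note: agonist potency for raising coactivator recruitment to the receptor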
# [4] = A cytotoxicity screen of small molecule inhibitors of the PhoP region in Salmonella typhi identified in the primary screen. [Related pubchem assays: 1850, 1864, 1985 ]; format: functional
# Trypsin = Trypsin (Sus scrofa, UniProt P00761); assay: porcine trypsin inhibitors, dose response, selectivity assay for Rce1 protease inhibitor project, biochemical, quenched peptide fluorescence, cherry-pick (AID 488789)
# [5] = target: Induced myeloid leukemia cell differentiation protein Mcl-1 (Homo sapiens, UniProt Q07820); format: functional
# [6] = target: T1, Short transient receptor potential channel 4 (Mus musculus, UniProt Q9QUQ5); assay: mouse TRPC4 channel activators, dose response, cell-based, HEK293 TRPC4/mu-opioid, Fluo-4 calcium (AID 434937); format: functional
# T1 sequence (Q9QUQ5 whole entry): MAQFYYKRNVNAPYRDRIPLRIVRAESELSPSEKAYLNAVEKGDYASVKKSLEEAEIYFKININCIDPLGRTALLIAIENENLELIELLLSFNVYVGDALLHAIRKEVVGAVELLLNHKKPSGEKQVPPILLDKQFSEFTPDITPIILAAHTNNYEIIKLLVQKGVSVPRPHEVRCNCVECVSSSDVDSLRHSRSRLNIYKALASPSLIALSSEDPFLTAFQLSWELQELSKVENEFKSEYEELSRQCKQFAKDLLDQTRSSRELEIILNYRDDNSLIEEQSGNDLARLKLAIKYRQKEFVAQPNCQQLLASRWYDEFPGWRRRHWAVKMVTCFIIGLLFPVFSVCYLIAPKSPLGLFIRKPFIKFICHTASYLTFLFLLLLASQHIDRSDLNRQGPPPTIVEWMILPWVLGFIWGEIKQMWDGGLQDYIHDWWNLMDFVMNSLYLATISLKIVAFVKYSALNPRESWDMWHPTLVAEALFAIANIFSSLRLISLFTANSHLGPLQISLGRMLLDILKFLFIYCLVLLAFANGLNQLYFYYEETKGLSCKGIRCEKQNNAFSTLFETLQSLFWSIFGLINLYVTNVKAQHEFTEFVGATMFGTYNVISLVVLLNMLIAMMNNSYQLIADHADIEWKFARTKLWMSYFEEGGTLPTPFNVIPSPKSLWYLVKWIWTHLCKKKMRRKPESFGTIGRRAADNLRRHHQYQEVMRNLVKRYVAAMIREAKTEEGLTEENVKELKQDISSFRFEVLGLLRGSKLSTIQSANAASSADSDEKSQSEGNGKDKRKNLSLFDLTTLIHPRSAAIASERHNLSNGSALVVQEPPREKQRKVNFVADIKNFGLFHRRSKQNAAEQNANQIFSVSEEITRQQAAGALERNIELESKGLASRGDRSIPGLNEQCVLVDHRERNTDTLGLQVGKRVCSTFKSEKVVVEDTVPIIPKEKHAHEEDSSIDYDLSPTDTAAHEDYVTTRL
# [7] = THP-1 cell cytotoxicity, dose response, cytotoxicity control for non-replicating M. tuberculosis project (AID 489025); format: functional
# [8] = Vero E6 cell cytotoxicity, dose response, cytotoxicity control for non-replicating M. tuberculosis project, secondary assay (AID 492998); format: functional, VeroE6; details: Vero C1008
# cells = format: functional
# [9] = cytotoxicity in HEK-293T cells, dose response, cytotoxicity control for TCR NF-kB inhibitor project, luminescence, T-cell screen hits (AID 489026); format: functional, cell-based;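 note: cells exposed to compound about 14 hours before the viability readout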
# Caspase-6 = target: T2, Caspase-6 (Homo sapiens, UniProt P55212); assay: human caspase-6 inhibitors, dose response, biochemical, VEID-R110 fluorescence, cherry-pick (AID 720632)
# T2 sequence (P55212 whole entry): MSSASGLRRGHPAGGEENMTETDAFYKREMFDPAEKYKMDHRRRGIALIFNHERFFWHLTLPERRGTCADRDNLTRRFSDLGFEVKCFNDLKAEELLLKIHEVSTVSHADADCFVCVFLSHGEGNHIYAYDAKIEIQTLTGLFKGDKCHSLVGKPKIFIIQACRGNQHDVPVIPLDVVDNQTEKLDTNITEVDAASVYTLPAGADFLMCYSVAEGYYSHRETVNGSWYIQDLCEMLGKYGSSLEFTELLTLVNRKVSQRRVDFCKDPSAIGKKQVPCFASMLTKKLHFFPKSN
# [10] = cytotoxicity toward NIH3T3 fibroblasts, dose response, counter-screen, cell-based, ATP luminescence, mouse fibroblasts (AID 2010); format: functional;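 note: cells exposed to compound for about 90 hours before reading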
# [11] = inhibitors of intracellular T. cruzi replication, confirmation, NIH3T3 host cells, beta-gal luminescence (AID 2044); format: functional, cell-based;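 note: intracellular parasites grown in NIH/3T3 mouse fibroblasts as host cells; luminescent beta-galactosidase reporter signal from transgenic T. cruzi replicating inside host cells; inhibitors lower the luminescence signal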
# Paired box protein Pax-8 = Paired box protein Pax-8 (Homo sapiens, UniProt Q06710); assay: inhibitors of PAX8-driven TPO luciferase reporter, dose response, RMG-I cells, cherry-pick (AID 687027); format: functional, cell-based;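 note: luciferase reporter driven by Pax8 target thyroperoxidase promoter measured by SteadyGlo luminescence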
# [12] = target: T3, Microphthalmia-associated transcription factor (Homo sapiens, UniProt O75030); assay: TRPM1 promoter luciferase signal decrease, dose response, MITF inhibitor project, cell-based, SK-MEL-5, cherry-picked, set 3 (AID 493073); format: functional
# T3 sequence (O75030 whole entry): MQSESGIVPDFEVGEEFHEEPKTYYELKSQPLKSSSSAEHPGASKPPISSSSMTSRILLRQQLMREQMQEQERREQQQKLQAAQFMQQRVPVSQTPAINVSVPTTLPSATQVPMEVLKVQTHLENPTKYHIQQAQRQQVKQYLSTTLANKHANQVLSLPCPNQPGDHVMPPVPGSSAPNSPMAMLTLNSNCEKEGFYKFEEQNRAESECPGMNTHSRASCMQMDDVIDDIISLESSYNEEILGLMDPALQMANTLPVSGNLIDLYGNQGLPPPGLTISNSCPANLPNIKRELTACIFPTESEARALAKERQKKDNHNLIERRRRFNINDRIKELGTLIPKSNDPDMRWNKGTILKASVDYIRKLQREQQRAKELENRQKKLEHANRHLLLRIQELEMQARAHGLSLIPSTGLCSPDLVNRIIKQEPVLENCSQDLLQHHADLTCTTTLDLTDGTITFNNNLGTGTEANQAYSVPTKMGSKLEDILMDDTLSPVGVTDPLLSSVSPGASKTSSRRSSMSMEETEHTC
# [13] = target: T4, Ubiquitin-conjugating enzyme E2 N (Homo sapiens, UniProt P61088); format: functional;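 note: Dose-response confirmation in a TR-FRET assay detecting UBC13-driven polyubiquitin chain formation, inhibition measured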
# T4 sequence (P61088 whole entry): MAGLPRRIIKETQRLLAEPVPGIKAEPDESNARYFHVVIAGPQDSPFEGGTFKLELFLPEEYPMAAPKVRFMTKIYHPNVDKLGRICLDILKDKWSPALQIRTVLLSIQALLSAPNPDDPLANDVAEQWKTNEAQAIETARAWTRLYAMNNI
# [14] = Luminescence Cell-Based Dose Retest to Confirm Inhibitors of Cancer Stem Cells. [Related pubchem assays (depositor defined):AID2717, AID2721]; format: functional; details: Homo sapiens
# Cytochrome P450 3A4 = Cytochrome P450 3A4 (Homo sapiens, UniProt P08684);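 note: CYP3A4 tested as one member of a cytochrome P450 panel screen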
# Cytochrome P450 2C9 = Cytochrome P450 2C9 (Homo sapiens, UniProt P11712)
# INS1 = assay: beta cell apoptosis inhibitors, cytokine rescue, dose response, luminescence, retest (AID 449756); format: functional, cell-based; details: Rattus norvegicus;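 note: cell death triggered by IL-1 beta plus TNF-alpha plus IFN-gamma mixture; protective hits raise ATP signal compared with cytokine alone wells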
# [15] = growth suppression of beta-catenin-knockout colon cells, dose response, cell-based, HCT116, human colon tumor (AID 1045); format: functional;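 note: HCT116 colon tumor cells with beta catenin knocked out; cells exposed to compound for 60 hours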
# [16] = growth suppression of PTEN-null colon cells, dose response, cell-based, HCT116 PTEN knockout (AID 1047); format: functional;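 note: HCT116 colon tumor cells with PTEN knocked out; cells exposed to compound for 60 hours before readout; potency for loss of cell viability measured by luminescence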
# [17] = target: T5, Sentrin-specific protease 8 (Homo sapiens, UniProt Q96LD8); format: functional
# T5 sequence (Q96LD8 whole entry): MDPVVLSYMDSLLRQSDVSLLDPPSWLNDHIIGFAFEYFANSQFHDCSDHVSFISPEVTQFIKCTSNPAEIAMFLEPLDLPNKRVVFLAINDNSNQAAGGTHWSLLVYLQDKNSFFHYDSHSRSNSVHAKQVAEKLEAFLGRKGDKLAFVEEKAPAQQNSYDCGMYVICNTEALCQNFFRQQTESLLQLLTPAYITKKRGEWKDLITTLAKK
# [18] = target: T5, Sentrin-specific protease 8; format: functional; remark: listed apart in the source
# [19] = P. falciparum Dd2 growth inhibitors, dose response, SYBR Green, cherry-picked samples (AID 1159567); format: functional, cell-based
# [20] = P. falciparum Dd2 growth inhibitors, dose response, SYBR Green, dry powder samples (AID 1159566); format: functional, cell-based;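 note: potency for growth inhibition with lower SYBR green DNA signal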
# [21] = P. falciparum 3D7-ScDHODH growth inhibitors, dose response, SYBR Green, dry powder samples (AID 1159570); format: functional, cell-based;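 note: parasite growth measured after 72 hours of compound exposure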
# [22] = P. falciparum ATP4 D1247Y mutant growth inhibitors, dose response, NITD609-resistant line, SYBR Green, dry powder (AID 1159571); format: functional, cell-based;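 note: parasites synchronized at ring stage by sorbitol before testing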
# Peroxisome proliferator-activated receptor gamma/Nuclear receptor coactivator 2, sequence (P37231 whole entry): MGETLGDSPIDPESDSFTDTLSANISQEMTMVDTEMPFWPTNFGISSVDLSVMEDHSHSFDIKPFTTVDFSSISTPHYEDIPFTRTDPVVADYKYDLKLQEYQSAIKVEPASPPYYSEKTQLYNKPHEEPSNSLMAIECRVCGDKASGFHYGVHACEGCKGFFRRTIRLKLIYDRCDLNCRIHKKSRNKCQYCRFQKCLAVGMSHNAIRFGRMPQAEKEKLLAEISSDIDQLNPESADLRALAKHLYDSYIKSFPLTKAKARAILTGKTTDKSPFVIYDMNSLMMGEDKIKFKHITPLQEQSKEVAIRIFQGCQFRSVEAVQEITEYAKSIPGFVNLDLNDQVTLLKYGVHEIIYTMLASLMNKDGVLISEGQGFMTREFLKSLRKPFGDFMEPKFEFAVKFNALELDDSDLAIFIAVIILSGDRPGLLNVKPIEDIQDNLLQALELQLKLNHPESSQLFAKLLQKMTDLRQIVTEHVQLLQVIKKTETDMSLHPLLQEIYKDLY
# Peroxisome proliferator-activated receptor gamma/Nuclear receptor coactivator 2, sequence (Q15596 whole entry, further chain): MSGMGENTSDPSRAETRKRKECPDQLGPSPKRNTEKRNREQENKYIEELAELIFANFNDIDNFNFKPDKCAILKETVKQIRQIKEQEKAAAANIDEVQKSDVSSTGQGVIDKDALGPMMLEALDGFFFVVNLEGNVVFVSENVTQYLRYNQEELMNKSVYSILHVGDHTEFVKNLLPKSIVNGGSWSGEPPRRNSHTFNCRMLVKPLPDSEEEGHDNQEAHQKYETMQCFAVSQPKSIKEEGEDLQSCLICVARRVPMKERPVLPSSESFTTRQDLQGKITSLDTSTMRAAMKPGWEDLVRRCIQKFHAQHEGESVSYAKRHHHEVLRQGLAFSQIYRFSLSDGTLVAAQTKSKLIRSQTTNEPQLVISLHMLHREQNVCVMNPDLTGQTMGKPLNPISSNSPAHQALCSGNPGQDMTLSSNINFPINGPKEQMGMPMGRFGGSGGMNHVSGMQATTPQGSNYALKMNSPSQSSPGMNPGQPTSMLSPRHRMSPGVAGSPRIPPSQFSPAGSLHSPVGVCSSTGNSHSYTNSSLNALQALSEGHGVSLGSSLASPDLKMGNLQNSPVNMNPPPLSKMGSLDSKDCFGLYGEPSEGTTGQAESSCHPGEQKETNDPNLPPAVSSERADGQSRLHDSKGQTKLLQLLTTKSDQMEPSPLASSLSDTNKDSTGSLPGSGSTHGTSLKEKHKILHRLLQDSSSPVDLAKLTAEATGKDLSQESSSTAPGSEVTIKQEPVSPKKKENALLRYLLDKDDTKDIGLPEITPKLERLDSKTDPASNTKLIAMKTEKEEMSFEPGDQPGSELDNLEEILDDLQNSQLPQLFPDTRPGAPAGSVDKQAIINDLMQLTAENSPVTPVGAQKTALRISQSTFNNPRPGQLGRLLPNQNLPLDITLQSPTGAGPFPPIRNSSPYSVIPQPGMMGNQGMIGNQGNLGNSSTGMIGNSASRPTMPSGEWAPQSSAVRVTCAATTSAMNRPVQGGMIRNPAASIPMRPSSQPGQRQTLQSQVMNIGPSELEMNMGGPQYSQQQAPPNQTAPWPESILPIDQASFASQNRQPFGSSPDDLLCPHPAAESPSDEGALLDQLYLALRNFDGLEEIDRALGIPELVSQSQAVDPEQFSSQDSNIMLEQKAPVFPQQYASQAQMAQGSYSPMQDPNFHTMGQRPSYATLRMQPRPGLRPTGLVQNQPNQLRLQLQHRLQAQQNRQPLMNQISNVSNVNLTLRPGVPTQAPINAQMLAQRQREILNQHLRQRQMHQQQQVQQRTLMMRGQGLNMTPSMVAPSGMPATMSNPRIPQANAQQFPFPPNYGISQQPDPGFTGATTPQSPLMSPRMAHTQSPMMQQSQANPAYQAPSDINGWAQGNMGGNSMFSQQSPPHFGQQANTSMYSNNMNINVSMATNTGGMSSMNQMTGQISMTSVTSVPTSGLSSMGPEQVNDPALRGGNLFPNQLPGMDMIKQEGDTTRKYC
# Peroxisome proliferator-activated receptor gamma/Nuclear receptor coactivator 1, sequence (P37231 whole entry): as the sequence (P37231 whole entry) above
# Peroxisome proliferator-activated receptor gamma/Nuclear receptor coactivator 1, sequence (Q15788 whole entry, further chain): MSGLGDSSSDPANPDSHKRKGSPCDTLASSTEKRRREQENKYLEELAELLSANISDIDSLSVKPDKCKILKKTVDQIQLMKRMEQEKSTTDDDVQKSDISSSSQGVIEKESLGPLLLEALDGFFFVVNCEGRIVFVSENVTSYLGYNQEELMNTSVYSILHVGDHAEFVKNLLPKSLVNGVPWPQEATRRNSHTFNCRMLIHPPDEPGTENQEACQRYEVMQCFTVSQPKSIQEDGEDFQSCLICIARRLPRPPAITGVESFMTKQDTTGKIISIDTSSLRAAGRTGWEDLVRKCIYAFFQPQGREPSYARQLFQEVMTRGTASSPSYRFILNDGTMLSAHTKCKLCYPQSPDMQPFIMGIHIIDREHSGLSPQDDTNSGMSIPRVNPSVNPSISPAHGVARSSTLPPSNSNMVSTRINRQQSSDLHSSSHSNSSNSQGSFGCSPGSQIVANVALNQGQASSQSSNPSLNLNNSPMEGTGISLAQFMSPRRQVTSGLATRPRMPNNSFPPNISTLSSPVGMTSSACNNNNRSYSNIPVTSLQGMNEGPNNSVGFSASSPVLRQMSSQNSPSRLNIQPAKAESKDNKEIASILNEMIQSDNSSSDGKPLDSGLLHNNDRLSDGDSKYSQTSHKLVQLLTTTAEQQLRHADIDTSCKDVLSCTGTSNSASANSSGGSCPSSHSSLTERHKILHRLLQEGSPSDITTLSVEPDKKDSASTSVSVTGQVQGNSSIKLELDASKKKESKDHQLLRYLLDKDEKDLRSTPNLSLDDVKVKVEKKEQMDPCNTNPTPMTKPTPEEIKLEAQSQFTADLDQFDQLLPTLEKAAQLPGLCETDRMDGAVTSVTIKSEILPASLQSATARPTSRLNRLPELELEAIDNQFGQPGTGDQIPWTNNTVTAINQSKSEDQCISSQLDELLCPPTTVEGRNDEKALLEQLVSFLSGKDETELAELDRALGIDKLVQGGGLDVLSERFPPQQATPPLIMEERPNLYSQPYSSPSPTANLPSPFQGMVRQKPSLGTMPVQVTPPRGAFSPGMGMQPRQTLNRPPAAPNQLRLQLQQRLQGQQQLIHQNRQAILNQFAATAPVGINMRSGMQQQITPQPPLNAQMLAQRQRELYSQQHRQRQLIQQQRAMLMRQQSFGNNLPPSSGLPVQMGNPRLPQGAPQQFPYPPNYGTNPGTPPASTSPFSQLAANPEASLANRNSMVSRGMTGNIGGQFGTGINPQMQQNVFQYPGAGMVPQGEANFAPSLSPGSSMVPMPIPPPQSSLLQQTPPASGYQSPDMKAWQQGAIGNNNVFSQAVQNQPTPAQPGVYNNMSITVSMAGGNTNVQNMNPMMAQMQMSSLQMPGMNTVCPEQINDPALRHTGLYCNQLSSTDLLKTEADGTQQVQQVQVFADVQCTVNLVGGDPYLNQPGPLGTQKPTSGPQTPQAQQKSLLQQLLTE
# Trypsin, sequence (P00761 whole entry): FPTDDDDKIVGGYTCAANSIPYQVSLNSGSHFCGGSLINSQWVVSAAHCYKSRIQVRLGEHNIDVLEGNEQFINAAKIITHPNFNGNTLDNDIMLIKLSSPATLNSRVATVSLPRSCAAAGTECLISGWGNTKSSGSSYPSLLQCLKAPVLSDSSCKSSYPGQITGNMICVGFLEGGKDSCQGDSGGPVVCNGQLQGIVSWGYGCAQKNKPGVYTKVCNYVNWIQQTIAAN
# Cytochrome P450 3A4, sequence (P08684 whole entry): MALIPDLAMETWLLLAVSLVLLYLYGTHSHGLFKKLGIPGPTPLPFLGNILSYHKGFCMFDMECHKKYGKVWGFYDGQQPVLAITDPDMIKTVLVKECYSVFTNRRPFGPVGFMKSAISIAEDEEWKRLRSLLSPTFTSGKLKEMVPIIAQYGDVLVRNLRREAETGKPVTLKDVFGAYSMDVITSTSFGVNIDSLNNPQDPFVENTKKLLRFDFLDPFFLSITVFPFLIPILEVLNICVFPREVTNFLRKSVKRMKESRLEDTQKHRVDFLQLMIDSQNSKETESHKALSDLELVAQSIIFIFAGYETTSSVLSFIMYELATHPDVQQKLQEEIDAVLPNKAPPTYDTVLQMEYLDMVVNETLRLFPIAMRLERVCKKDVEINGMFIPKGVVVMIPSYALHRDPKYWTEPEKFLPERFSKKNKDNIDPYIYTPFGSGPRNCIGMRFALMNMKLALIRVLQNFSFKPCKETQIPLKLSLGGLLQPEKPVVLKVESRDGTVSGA
# Induced myeloid leukemia cell differentiation protein Mcl-1, sequence (Q07820 whole entry): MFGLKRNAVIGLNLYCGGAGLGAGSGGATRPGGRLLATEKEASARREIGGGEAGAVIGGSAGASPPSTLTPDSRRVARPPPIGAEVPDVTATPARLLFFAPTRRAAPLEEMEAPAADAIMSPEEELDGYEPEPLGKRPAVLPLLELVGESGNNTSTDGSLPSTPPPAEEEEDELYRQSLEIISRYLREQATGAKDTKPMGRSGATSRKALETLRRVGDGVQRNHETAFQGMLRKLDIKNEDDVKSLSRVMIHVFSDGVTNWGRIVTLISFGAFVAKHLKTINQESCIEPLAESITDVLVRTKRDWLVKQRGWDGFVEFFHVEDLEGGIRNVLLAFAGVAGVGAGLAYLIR
smiles,measurement,setting,value
CCCCNC(=O)CSc1nc2ccccc2c(=O)n1Cc1ccc2c(c1)OCO2,EC50,[1],> 79.4 µM (not active)
same,EC50,[2],> 79.4 µM (not active)
same,EC50,[3],> 79.4 µM (not active)
CC[N+](C)(CC)CCC[n+]1c(-c2ccccc2)c2cc(N)ccc2c2ccc(N)cc21 [PROPIDIUM],EC50,[4],> 50 µM (active)
CC(=O)c1c(C)[nH]c(C(=O)OCC(=O)NCC(C)C)c1C,EC50,[4],> 50 µM (active)
N=c1oc2cc(O)ccc2cc1C(=O)Nc1nc2ccccc2s1,AC50,Trypsin,12.4 µM (active)
same,IC50,[5],3.21 µM (active)
O=C(C1CCCN(Cc2ccccc2)C1)N1CCc2ccccc2C1 (stereo not drawn),EC50,[6],0.133 µM (active)
Cc1ccc(/C=N/NC(=O)C2COc3ccccc3O2)s1 (stereo not drawn),CC50,[7],4.18 µM (active)
same,CC50,[8],8.33 µM (active)
same,IC50,cells,7.88 µM (active)
same,IC50,[9],> 80 µM (inactive)
O=C(O)C1Oc2cc3ccccc3cc2O1,AC50,Caspase-6,8.44 µM (active)
Cc1cccc(N2CCN(C(=O)C3CCN(c4nnc(-n5cccc5)s4)CC3)CC2C)c1 (stereo not drawn),EC50,[4],> 50 µM (active)
CCN(Cc1ccccc1)S(=O)(=O)c1ccc(C(=O)N(CCCN(C)C)c2nc3c(F)cccc3s2)cc1,EC50,[6],2.11 µM (active)
O=C(Nc1ccc(S(=O)(=O)NC2=NCCCCC2)cc1)c1ccc([N+](=O)[O-])s1,EC50,[10],8.46 µM (active)
same,EC50,[11],0.201 µM (active)
same,AC50,Paired box protein Pax-8,5.3 µM (active)
same,AC50,[12],5.11 µM (active)
O=S(=O)(c1ccccc1)c1nnn2c1nc(NC1CCN(Cc3ccccc3)CC1)c1cc(Cl)ccc12,EC50,[6],6.68 µM (active)
FC(F)(F)c1cc(CCN2CCNC[C@@H]2Cc2ccccc2)cc(C(F)(F)F)c1,AC50,[12],12.3 µM (active)
same,IC50,[13],> 20 µM (inactive)
same,AC50,[14],13.3 µM (active)
O=S(=O)(c1ccccc1)c1cnn2c(C(F)(F)F)cc(-c3ccc(F)cc3)nc12,EC50,[1],> 79.4 µM (not active)
same,EC50,[2],> 79.4 µM (not active)
same,AC50,Trypsin,20.2 µM (active)
same,EC50,[3],> 79.4 µM (not active)
same,AC50,Cytochrome P450 3A4,3.16 µM (inconclusive)
same,AC50,Cytochrome P450 2C9,inconclusive
O=C(N/N=C/c1ccc([N+](=O)[O-])s1)C(O)c1ccccc1 (stereo not drawn),EC50,[10],> 60 µM (inconclusive)
same,AC50,INS1,7.84 µM (active)
same,EC50,[15],5.56 µM (active)
same,EC50,[16],5.9 µM (active)
same,EC50,[11],0.306 µM (active)
same,AC50,[12],4.48 µM (active)
O=C(COC(=O)c1ccc([N+](=O)[O-])o1)NC1CCS(=O)(=O)C1 (stereo not drawn),IC50,[17],8.96 µM (active)
same,IC50,[18],9.9 µM (active)
same,AC50,Caspase-6,39.7 µM (active)
CCOC(=O)COc1ccc(/C=C2\NC(=S)N(CC)C2=O)cc1,EC50,[1],> 79.4 µM (not active)
same,EC50,[2],> 79.4 µM (not active)
same,EC50,[3],> 79.4 µM (not active)
same,CC50,[7],> 40 µM (active)
same,IC50,cells,3.34 µM (active)
CCOc1cc(-c2nnc(NC(=O)c3ccco3)o2)cc(OCC)c1OCC,CC50,[8],> 20 µM (active)
same,IC50,cells,5.12 µM (active)
Brc1ccc(/C=N/c2ccc(Nc3ccccc3)cc2)s1,EC50,[1],> 79.4 µM (not active)
same,EC50,[2],> 79.4 µM (not active)
same,EC50,[3],> 79.4 µM (not active)
O=C(Nc1ccccc1F)N1CCCCN2[C@H](CO)[C@H](c3ccc(C#Cc4cccnc4)cc3)[C@@H]2C1,AC50,[19],0.86 µM (active)
same,AC50,[20],0.507 µM (active)
same,AC50,[21],0.452 µM (active)
same,AC50,[22],0.504 µM (active)
CN1CCC(OC(=O)c2ccc(Cl)cc2Cl)CC1,EC50,[10],> 60 µM (not active)
same,EC50,[4],> 50 µM (active)
same,EC50,[11],0.127 µM (active)
O=C1Cc2ccccc2C(=O)N1Cc1cccc(Cl)c1,IC50,[17],0.528 µM (active)
same,IC50,[18],> 100 µM (inactive)
same,AC50,Caspase-6,13 µM (active)
